Reference: the NIST ThermoML archive (doi:10.1016/j.tca.2013.08.031)
± gives the expanded uncertainty stated by the source.

Experiment: molar heat capacity at constant volume
Settings: Fluid (supercritical or subcritical phases), Vacuum adiabatic calorimetry

CCC(C)O (stereo not given) [butan-2-ol]
Settings | molar heat capacity at constant volume [J/K/mol]
527.47 K, Mass density=142.27 kg/m3 | 538.57 ± 5.6
527.66 K, Mass density=142.27 kg/m3 | 541.75 ± 6.4
527.84 K, Mass density=142.27 kg/m3 | 547.68 ± 6.2
527.89 K, Mass density=142.27 kg/m3 | 524.19 ± 5.9
527.91 K, Mass density=142.27 kg/m3 | 561.92 ± 6.2
527.93 K, Mass density=142.27 kg/m3 | 439.91 ± 5.1
527.95 K, Mass density=142.27 kg/m3 | 388.84 ± 4.7
527.97 K, Mass density=142.27 kg/m3 | 388.92 ± 4.7
527.99 K, Mass density=142.27 kg/m3 | 375.57 ± 4.6
528.01 K, Mass density=142.27 kg/m3 | 386.62 ± 4.8
528.02 K, Mass density=142.27 kg/m3 | 388.84 ± 4.8
528.02 K, Mass density=403.55 kg/m3 | 319.46 ± 3
528.21 K, Mass density=142.27 kg/m3 | 337.77 ± 4.7
528.21 K, Mass density=403.55 kg/m3 | 320.21 ± 3
528.39 K, Mass density=403.55 kg/m3 | 321.69 ± 3
528.58 K, Mass density=403.55 kg/m3 | 321.69 ± 3
528.76 K, Mass density=403.55 kg/m3 | 324.65 ± 3
528.95 K, Mass density=142.27 kg/m3 | 295.37 ± 3
528.95 K, Mass density=403.55 kg/m3 | 322.43 ± 3
529.13 K, Mass density=142.27 kg/m3 | 274.69 ± 2.8
529.13 K, Mass density=403.55 kg/m3 | 326.14 ± 3
529.31 K, Mass density=142.27 kg/m3 | 275.36 ± 2.9
529.31 K, Mass density=403.55 kg/m3 | 306.86 ± 3
529.5 K, Mass density=403.55 kg/m3 | 232 ± 2.2
529.68 K, Mass density=403.55 kg/m3 | 229.78 ± 2.2
529.87 K, Mass density=403.55 kg/m3 | 227.55 ± 2.2
530.05 K, Mass density=142.27 kg/m3 | 274.1 ± 2.7
530.23 K, Mass density=142.27 kg/m3 | 282.55 ± 2.8
530.23 K, Mass density=403.55 kg/m3 | 227.55 ± 2.2
530.42 K, Mass density=142.27 kg/m3 | 282.33 ± 2.8
530.42 K, Mass density=403.55 kg/m3 | 228.29 ± 2.2
530.6 K, Mass density=403.55 kg/m3 | 232 ± 2.2
530.79 K, Mass density=184.89 kg/m3 | 471.41 ± 4.8
530.79 K, Mass density=403.55 kg/m3 | 229.78 ± 2.2
530.97 K, Mass density=184.89 kg/m3 | 466.37 ± 4.7
530.97 K, Mass density=403.55 kg/m3 | 232 ± 2.2
531.15 K, Mass density=184.89 kg/m3 | 474.16 ± 4.8
531.15 K, Mass density=347.06 kg/m3 | 363.2 ± 3.7
531.15 K, Mass density=403.55 kg/m3 | 229.78 ± 2.2
531.34 K, Mass density=184.89 kg/m3 | 489.72 ± 5
531.34 K, Mass density=347.06 kg/m3 | 356.52 ± 3.7
531.34 K, Mass density=403.55 kg/m3 | 233.48 ± 2.2
531.52 K, Mass density=184.89 kg/m3 | 492.32 ± 5
531.52 K, Mass density=347.06 kg/m3 | 358.01 ± 3.7
531.52 K, Mass density=403.55 kg/m3 | 233.48 ± 2.2
531.7 K, Mass density=184.89 kg/m3 | 488.16 ± 4.9
531.7 K, Mass density=284.93 kg/m3 | 365.79 ± 3.7
531.7 K, Mass density=301.19 kg/m3 | 380.99 ± 3.7
531.7 K, Mass density=347.06 kg/m3 | 360.23 ± 3.7
531.7 K, Mass density=403.55 kg/m3 | 237.19 ± 2.2
531.89 K, Mass density=184.89 kg/m3 | 479.34 ± 4.8
531.89 K, Mass density=284.93 kg/m3 | 377.35 ± 3.9
531.89 K, Mass density=301.19 kg/m3 | 380.99 ± 3.7
531.89 K, Mass density=347.06 kg/m3 | 364.68 ± 3.7
531.89 K, Mass density=403.55 kg/m3 | 239.41 ± 2.2
532.07 K, Mass density=184.89 kg/m3 | 478.97 ± 4.8
532.07 K, Mass density=245.67 kg/m3 | 434.57 ± 4.4
532.07 K, Mass density=284.93 kg/m3 | 387.43 ± 3.9
532.07 K, Mass density=347.06 kg/m3 | 363.94 ± 3.7
532.07 K, Mass density=403.55 kg/m3 | 238.67 ± 2.2
532.26 K, Mass density=184.89 kg/m3 | 490.54 ± 5
532.26 K, Mass density=245.67 kg/m3 | 439.02 ± 4.4
532.26 K, Mass density=286.65 kg/m3 | 404.56 ± 4.1
532.26 K, Mass density=301.19 kg/m3 | 388.4 ± 3.7
532.26 K, Mass density=347.06 kg/m3 | 364.68 ± 3.7
532.26 K, Mass density=403.55 kg/m3 | 236.45 ± 2.2
532.44 K, Mass density=245.67 kg/m3 | 433.61 ± 4.4
532.44 K, Mass density=286.65 kg/m3 | 410.63 ± 4.2
532.44 K, Mass density=301.19 kg/m3 | 386.17 ± 3.7
532.44 K, Mass density=347.06 kg/m3 | 361.71 ± 3.7
532.62 K, Mass density=184.89 kg/m3 | 485.64 ± 5
532.62 K, Mass density=198.25 kg/m3 | 477.94 ± 4.8
532.62 K, Mass density=245.67 kg/m3 | 439.84 ± 4.4
532.62 K, Mass density=286.65 kg/m3 | 417.75 ± 4.2
532.62 K, Mass density=301.19 kg/m3 | 388.4 ± 3.7
532.62 K, Mass density=347.06 kg/m3 | 361.71 ± 3.7
532.62 K, Mass density=403.55 kg/m3 | 232 ± 2.2
532.81 K, Mass density=184.89 kg/m3 | 501.51 ± 5.1
532.81 K, Mass density=198.25 kg/m3 | 476.53 ± 4.8
532.81 K, Mass density=245.67 kg/m3 | 441.76 ± 4.4
532.81 K, Mass density=286.65 kg/m3 | 423.83 ± 4.3
532.81 K, Mass density=301.19 kg/m3 | 385.43 ± 3.7
532.81 K, Mass density=347.06 kg/m3 | 364.68 ± 3.7
532.81 K, Mass density=403.55 kg/m3 | 231.26 ± 2.2
532.81 K, Mass density=474.07 kg/m3 | 191.23 ± 2.2
532.99 K, Mass density=184.89 kg/m3 | 501.8 ± 5.6
532.99 K, Mass density=198.25 kg/m3 | 476.23 ± 4.8
532.99 K, Mass density=245.67 kg/m3 | 435.17 ± 4.4
532.99 K, Mass density=286.65 kg/m3 | 421.6 ± 4.2
532.99 K, Mass density=301.19 kg/m3 | 390.62 ± 3.7
532.99 K, Mass density=347.06 kg/m3 | 370.61 ± 3.7
532.99 K, Mass density=474.07 kg/m3 | 191.23 ± 2.2
533.17 K, Mass density=184.89 kg/m3 | 502.32 ± 5.6
533.17 K, Mass density=198.25 kg/m3 | 482.38 ± 4.9
533.17 K, Mass density=245.67 kg/m3 | 443.91 ± 4.4
533.17 K, Mass density=284.93 kg/m3 | 404.04 ± 4.1
533.17 K, Mass density=286.65 kg/m3 | 417.75 ± 4.2
533.17 K, Mass density=301.19 kg/m3 | 393.59 ± 3.7
533.17 K, Mass density=347.06 kg/m3 | 373.57 ± 3.7
533.17 K, Mass density=474.07 kg/m3 | 197.16 ± 2.2
533.36 K, Mass density=184.89 kg/m3 | 511.07 ± 5.6
533.36 K, Mass density=198.25 kg/m3 | 490.83 ± 5
533.36 K, Mass density=245.67 kg/m3 | 447.32 ± 4.5
533.36 K, Mass density=284.93 kg/m3 | 410.71 ± 4.2
533.36 K, Mass density=286.65 kg/m3 | 416.27 ± 4.2
